{"source": "patent US5449820A", "about": "“Method of preparing high purity 2,6-naphthalene dicarboxylic acid” (Mitsubishi Chemical Corporation, priority 1994, dated 1995)", "test": "solubility of 2,6-naphthalene dicarboxylic acid with respect to high temperature and high pressure water", "assay_type": "physicochemical", "details": "for solubility in water containing 5 wt % of isopropanol: water containing 5 wt % of isopropanol (entrainer)", "method": "Although the quantity of water for use in the dissolving process differs depending upon the dissolving temperature, the quantity of water must be larger than a quantity (the saturated solubility) in which coarse 2,6-naphthalene dicarboxylic acid can be completely dissolved. In an example case where water containing 5 wt % of isopropanol is used and the dissolving temperature is 300° C., five parts or more by weight of water with respect to one part by weight of coarse 2,6-naphthalene dicarboxylic acid is required. An example of the results of measurements of the solubility of 2,6-naphthalene dicarboxylic acid with respect to high temperature and high pressure water is shown in Table 1.", "data": [{"smiles": "O=C(O)c1ccc2cc(C(=O)O)ccc2c1", "note": "[2,6-naphthalene dicarboxylic acid]", "values": [{"measurement": "Solubility in water", "setting": "225 °C, 27 atm", "result": 0.36, "unit": "wt %"}, {"measurement": "Solubility in water", "setting": "250 °C, 40 atm", "result": 1.13, "unit": "wt %"}, {"measurement": "solubility in water containing 5 wt % of isopropanol", "setting": "250 °C", "result": 4.2, "unit": "wt %"}, {"measurement": "Solubility in water", "setting": "275 °C, 60 atm", "result": 3.28, "unit": "wt %"}, {"measurement": "Solubility in water", "setting": "300 °C, 86 atm", "result": 8.34, "unit": "wt %"}, {"measurement": "solubility in water containing 5 wt % of isopropanol", "setting": "300 °C", "result": 18.0, "unit": "wt %"}, {"measurement": "Solubility in water", "setting": "325 °C, 121 atm", "result": 18.6, "unit": "wt %"}, {"measurement": "Solubility in water", "setting": "375 °C, 230 atm", "result": 34.2, "unit": "wt %"}, {"measurement": "Solubility in water", "setting": "386 °C, 230 atm", "result": 36.7, "unit": "wt %"}, {"measurement": "solubility with respect to water (dissolved)", "setting": "about 370 °C, critical temperature for water", "result": "≥ 30", "unit": "wt %"}]}]}
